Data: patent US9295673B2, “Combination of mTOR inhibitors and P13-kinase inhibitors, and uses thereof” (Intellikine LLC, priority 2011, dated 2016)
Where two headings read alike, the source gives them in different places. Values belong to the molecule of their own block, whether it stands above or below them.

Tests used:
PI3K δ = PI3K δ (Homo sapiens, UniProt O00329); test: PI 3-Kinase (human) HTRF assay, PI3K δ; details: read-out: PI3K δ IC50
PI3K β = PI3K β (Homo sapiens, UniProt P42338); test: PI 3-Kinase (human) HTRF assay, PI3K β; details: read-out: PI3K β IC50
PI3K β, sequence (P42338 whole entry): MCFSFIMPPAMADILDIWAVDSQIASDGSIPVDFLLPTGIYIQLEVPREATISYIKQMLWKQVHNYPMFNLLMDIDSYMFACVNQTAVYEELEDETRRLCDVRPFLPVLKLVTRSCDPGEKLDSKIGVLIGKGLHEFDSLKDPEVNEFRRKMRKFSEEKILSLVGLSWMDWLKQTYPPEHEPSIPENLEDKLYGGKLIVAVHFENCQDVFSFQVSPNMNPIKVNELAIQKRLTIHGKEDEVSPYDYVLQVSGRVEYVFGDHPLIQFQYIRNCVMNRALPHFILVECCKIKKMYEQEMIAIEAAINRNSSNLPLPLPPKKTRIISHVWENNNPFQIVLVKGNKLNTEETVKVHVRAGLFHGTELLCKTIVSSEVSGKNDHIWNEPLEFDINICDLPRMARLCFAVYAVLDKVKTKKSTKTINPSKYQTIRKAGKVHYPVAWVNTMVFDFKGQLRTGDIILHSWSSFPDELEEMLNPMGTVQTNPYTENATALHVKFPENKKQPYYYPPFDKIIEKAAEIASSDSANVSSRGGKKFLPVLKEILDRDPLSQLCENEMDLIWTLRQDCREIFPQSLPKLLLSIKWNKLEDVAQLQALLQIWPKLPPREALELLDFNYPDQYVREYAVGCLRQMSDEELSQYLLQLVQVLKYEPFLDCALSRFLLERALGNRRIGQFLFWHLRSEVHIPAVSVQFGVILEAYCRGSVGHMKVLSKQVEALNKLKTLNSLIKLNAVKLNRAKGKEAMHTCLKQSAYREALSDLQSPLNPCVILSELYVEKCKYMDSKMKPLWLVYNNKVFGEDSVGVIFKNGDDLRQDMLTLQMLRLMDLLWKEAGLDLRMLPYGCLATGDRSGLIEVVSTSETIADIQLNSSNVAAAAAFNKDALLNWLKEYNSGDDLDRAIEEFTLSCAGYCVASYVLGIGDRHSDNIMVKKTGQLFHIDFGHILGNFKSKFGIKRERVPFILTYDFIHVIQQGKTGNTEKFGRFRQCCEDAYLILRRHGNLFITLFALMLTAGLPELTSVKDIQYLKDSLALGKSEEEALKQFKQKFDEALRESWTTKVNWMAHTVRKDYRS
PI3K β, sequence (P27986 whole entry partner): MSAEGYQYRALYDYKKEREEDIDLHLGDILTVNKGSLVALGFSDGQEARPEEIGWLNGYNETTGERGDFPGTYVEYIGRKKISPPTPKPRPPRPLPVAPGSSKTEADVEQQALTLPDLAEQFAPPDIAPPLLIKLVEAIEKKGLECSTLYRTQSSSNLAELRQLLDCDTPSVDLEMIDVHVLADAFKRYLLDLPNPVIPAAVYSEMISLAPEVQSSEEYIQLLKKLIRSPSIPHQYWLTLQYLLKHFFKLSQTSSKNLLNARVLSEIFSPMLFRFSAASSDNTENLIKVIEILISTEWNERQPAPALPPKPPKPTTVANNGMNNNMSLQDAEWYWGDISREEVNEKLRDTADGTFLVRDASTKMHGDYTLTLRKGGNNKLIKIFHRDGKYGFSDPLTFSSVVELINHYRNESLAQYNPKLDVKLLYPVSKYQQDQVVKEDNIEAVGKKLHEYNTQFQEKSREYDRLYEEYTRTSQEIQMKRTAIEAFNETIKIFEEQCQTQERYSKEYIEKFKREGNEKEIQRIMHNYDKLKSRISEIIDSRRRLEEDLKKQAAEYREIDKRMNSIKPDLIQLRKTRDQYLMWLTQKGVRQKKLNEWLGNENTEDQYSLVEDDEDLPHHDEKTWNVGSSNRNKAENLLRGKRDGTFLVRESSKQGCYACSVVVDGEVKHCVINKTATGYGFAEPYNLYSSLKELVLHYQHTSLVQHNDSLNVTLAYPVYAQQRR

PI3K γ = PI3K γ (Homo sapiens, UniProt P48736); test: PI 3-Kinase (human) HTRF assay, PI3K γ; details: read-out: PI3K γ IC50
PI3K γ, sequence (P48736 whole entry): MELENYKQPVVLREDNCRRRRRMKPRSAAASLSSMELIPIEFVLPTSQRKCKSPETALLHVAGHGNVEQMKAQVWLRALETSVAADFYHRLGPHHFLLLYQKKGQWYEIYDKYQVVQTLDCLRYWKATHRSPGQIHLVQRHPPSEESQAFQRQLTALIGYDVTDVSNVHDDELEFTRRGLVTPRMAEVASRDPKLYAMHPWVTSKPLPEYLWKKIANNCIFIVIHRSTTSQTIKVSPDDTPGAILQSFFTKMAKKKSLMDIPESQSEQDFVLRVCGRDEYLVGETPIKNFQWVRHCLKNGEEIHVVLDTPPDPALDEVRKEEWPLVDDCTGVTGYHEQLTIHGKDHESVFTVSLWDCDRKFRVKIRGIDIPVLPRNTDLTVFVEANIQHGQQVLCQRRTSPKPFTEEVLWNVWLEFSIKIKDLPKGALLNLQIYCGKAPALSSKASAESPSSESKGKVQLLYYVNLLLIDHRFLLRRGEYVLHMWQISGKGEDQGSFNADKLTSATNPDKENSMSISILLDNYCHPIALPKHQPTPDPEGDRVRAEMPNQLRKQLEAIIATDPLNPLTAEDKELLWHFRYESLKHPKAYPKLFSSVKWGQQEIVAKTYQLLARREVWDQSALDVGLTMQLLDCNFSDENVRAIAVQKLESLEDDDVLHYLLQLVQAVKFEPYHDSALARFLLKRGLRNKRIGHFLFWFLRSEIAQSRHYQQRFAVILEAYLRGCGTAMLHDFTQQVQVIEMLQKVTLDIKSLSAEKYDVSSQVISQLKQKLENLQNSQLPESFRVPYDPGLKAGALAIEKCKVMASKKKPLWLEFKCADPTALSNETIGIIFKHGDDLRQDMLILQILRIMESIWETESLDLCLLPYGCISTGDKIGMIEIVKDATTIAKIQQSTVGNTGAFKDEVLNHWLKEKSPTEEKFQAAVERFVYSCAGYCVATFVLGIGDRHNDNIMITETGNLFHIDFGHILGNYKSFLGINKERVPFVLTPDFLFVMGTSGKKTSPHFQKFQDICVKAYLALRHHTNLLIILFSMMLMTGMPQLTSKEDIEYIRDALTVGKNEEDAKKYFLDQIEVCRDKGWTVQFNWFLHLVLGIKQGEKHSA

PI3K α = PI3K α (Homo sapiens, UniProt P42336); test: PI 3-Kinase (human) HTRF assay, PI3K α; details: read-out: PI3K α IC50
PI3K α, sequence (P42336 whole entry): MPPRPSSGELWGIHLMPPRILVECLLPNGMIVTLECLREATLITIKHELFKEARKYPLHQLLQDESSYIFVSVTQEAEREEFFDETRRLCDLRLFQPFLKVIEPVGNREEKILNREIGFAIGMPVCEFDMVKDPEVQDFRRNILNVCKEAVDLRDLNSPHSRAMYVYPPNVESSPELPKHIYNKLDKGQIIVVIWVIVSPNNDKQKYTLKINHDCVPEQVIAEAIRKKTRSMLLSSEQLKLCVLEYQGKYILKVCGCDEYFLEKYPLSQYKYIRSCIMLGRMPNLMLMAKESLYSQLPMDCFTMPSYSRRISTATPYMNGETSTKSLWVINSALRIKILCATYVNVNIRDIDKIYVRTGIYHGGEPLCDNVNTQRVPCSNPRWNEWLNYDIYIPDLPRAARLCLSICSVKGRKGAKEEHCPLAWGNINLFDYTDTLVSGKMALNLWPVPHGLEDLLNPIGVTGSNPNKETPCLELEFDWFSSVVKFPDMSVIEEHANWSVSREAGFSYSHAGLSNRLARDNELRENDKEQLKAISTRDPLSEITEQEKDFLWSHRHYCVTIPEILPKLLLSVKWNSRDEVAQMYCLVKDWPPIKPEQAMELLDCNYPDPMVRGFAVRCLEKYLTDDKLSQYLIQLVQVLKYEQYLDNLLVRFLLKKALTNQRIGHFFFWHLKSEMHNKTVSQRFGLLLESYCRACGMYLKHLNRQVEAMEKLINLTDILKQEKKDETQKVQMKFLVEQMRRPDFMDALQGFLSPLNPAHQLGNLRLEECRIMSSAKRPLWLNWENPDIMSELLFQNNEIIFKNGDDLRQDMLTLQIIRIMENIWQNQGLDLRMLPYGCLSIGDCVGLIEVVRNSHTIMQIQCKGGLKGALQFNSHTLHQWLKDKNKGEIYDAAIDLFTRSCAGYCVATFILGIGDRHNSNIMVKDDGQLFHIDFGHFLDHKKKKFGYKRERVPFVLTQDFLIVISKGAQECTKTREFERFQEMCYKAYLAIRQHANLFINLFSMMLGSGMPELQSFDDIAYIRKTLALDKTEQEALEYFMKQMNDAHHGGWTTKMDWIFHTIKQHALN
PI3K α, sequence (P27986 whole entry partner): as the sequence (P27986 whole entry partner) above

PI3K δ, sequence (O00329 whole entry): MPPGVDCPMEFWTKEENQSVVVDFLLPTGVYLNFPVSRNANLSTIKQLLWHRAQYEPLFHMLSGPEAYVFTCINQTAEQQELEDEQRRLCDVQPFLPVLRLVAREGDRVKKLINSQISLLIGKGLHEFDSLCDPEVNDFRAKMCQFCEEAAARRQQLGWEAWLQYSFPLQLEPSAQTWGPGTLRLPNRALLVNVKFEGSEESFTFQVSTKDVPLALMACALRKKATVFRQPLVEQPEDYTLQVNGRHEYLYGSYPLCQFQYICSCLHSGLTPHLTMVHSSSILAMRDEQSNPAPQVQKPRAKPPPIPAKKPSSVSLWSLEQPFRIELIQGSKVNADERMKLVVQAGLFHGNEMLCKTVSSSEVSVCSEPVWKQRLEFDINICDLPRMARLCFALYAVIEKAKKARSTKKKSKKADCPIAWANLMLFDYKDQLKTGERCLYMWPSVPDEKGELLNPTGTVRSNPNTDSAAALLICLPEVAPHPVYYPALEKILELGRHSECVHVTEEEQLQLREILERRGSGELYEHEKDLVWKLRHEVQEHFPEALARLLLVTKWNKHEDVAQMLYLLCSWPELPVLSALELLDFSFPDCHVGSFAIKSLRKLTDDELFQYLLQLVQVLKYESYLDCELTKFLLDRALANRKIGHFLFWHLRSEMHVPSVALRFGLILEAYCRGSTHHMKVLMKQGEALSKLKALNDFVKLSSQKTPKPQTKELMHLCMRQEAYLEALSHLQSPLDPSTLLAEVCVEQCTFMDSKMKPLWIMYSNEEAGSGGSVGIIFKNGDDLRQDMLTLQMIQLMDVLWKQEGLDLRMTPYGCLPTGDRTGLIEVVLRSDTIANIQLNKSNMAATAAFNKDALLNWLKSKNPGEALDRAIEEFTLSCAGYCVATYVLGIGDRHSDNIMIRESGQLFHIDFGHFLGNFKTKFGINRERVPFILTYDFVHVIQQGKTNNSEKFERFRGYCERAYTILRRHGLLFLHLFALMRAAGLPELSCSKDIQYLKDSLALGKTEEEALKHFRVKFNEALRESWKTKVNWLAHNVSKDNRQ
PI3K δ, sequence (P27986 whole entry partner): as the sequence (P27986 whole entry partner) above

SMILES: CN1CCN(c2ccc3ncc(-c4ccc5oc(N)nc5c4)cc3n2)CC1 [Compound 631]
IC50 (PI3K α; Table 4): < 10 µM | IC50 (PI3K β; Table 4): < 10 µM

SMILES: O=C(c1cnc2ccc(-c3cnc4cc[nH]c4c3)cn12)N1CCOCC1 [Compound 534]
IC50 (PI3K α; in vitro): < 10 µM

SMILES: Nc1nc2cc(-c3ccc4ncc(N5CC(N6CCN(C7CC7)CC6)C5)cc4n3)ccc2o1 [Compound 621]
IC50 (PI3K β; Table 4): < 10 µM | IC50 (PI3K δ; Table 4): < 10 µM

SMILES: O=C(c1cnc2ccc(-c3ccc(Cl)c(NS(=O)(=O)c4ccc(F)cc4F)c3)cn12)N1CCOCC1 [Compound 461]
IC50 (PI3K α; in vitro): < 1 µM | IC50 (PI3K β; in vitro): < 10 µM | IC50 (PI3K δ; in vitro): < 10 µM

SMILES: Cc1ncc(-c2ccc3ncc(C(=O)N4CCOCC4)n3c2)c2cn[nH]c12 [Compound 530]
IC50 (PI3K δ; in vitro): < 10 µM

SMILES: Nc1nc2cc(-c3ccc4ncc(N5CC(N6CCN(CC7CC7)CC6)C5)cc4n3)ccc2o1 [Compound 611]
IC50 (PI3K β; Table 4): < 10 µM | IC50 (PI3K γ; Table 4): < 10 µM

SMILES: CC(N)C(=O)N1CCN(c2cnc3ccc(-c4ccc5oc(N)nc5c4)cc3n2)CC1 (stereo not shown) [Compound 134]
IC50 (PI3K γ): < 10 µM

SMILES: C[C@H]1CN(c2cnc3ccc(-c4ccc5oc(N)nc5c4)nc3c2)CCN1 [Compound 598]
IC50 (PI3K δ): < 10 µM

SMILES: C[C@@H](N)C(=O)N1CCN(c2cnc3ccc(-c4ccc5oc(N)nc5c4)nc3n2)CC1 [Compound 582]
IC50 (PI3K β; Table 4): < 10 µM | IC50 (PI3K δ): < 10 µM

SMILES: Cc1ncc(-c2ccc3ncc(C(=O)N4CCOCC4)n3c2)c2cc[nH]c12 [Compound 536]
IC50 (PI3K α; in vitro): < 10 µM

SMILES: Cc1nccn1C1CN(c2cnc3ccc(-c4ccc5oc(N)nc5c4)nc3c2)C1 [Compound 614]
IC50 (PI3K β; Table 4): < 10 µM

SMILES: NC(=O)[C@H]1CCCN1C(=O)c1cnc2ccc(-c3ccc4oc(N)nc4c3)cn12 [Compound 260]
IC50 (PI3K γ): < 10 µM

SMILES: [2H]c1c(-c2ccc3ncc(C(=O)N4CCOCC4)n3c2)c([2H])c2nc(N)oc2c1[2H] [Compound 531]
IC50 (PI3K α; in vitro): < 0.1 µM | IC50 (PI3K β; in vitro): < 10 µM | IC50 (PI3K δ; in vitro): > 10 µM

SMILES: Nc1nc2cc(-c3ccc4ncc(N5CCC(O)CC5)cc4n3)ccc2o1 [Compound 613]
IC50 (PI3K β; Table 4): < 10 µM | IC50 (PI3K δ; Table 4): < 10 µM

SMILES: Nc1nc2cc(-c3ccc4ncc(N5CC(N6CCN(C7CC7)CC6)C5)nc4n3)ccc2o1 [Compound 620]
IC50 (PI3K β; Table 4): < 10 µM | IC50 (PI3K δ): < 10 µM | IC50 (PI3K γ; Table 4): < 10 µM

SMILES: CC(C)(N)C(=O)N1CCN(c2cnc3ccc(-c4ccc5oc(N)nc5c4)nc3n2)CC1 [Compound 591]
IC50 (PI3K β; Table 4): < 10 µM | IC50 (PI3K δ): < 10 µM | IC50 (PI3K γ; Table 4): < 10 µM

SMILES: Nc1nc2cc(-c3ccc4ncc(-c5cccnc5)nc4n3)ccc2o1 [Compound 554]
IC50 (PI3K β; Table 4): < 10 µM

SMILES: Nc1nc2cc(-c3ccc4ncc(C(=O)N5CCOCC5)n4c3)ccc2o1 [Compound 54]
IC50 (PI3K α): < 0.1 µM

Next, values leading:

IC50 (PI3K δ; Table 4): < 10 µM
SMILES: C[C@@H]1CN(c2cnc3ccc(-c4ccc5oc(N)nc5c4)nc3n2)CCN1 [Compound 578]

IC50 (PI3K δ): < 10 µM
SMILES: Nc1nc2cc(-c3ccc4ncc(N5CC(N6CC[C@H](O)C6)C5)nc4c3)ccc2o1 [Compound 322]

IC50 (PI3K β; Table 4): < 10 µM | IC50 (PI3K δ; Table 4): < 10 µM | IC50 (PI3K γ; Table 4): < 10 µM
SMILES: Nc1nc2cc(-c3ccc4ncc(N5CC(N6CCN(CC7CC7)CC6)C5)nc4n3)ccc2o1 [Compound 586]

IC50 (PI3K β; Table 4): < 10 µM | IC50 (PI3K δ; Table 4): < 10 µM | IC50 (PI3K γ; Table 4): < 10 µM
SMILES: Nc1nc2cc(-c3ccc4ncc(N5CC(N6CCN(CCO)CC6)C5)nc4n3)ccc2o1 [Compound 597]

IC50 (PI3K δ; Table 4): < 10 µM | IC50 (PI3K γ; Table 4): < 10 µM
SMILES: C[C@H]1COCCN1C1CN(c2cnc3ccc(-c4ccc5oc(N)nc5c4)nc3n2)C1 [Compound 612]

IC50 (PI3K δ; Table 4): < 10 µM | IC50 (PI3K γ; Table 4): < 10 µM
SMILES: C[C@H]1CN(c2cnc3ccc(-c4ccc5oc(N)nc5c4)nc3n2)CCN1 [Compound 552]

IC50 (PI3K β; Table 4): < 10 µM
SMILES: CN1CCN(C2CN(c3cnc4ccc(-c5ccc6oc(N)nc6c5)nc4c3)C2)CC1=O [Compound 615]

IC50 (PI3K δ; Table 4): < 10 µM
SMILES: C[C@H]1CN(C2CN(c3cnc4ccc(-c5ccc6oc(N)nc6c5)nc4n3)C2)CCN1C [Compound 572]

IC50 (PI3K β; Table 4): < 10 µM | IC50 (PI3K δ; Table 4): < 10 µM | IC50 (PI3K γ; Table 4): < 10 µM
SMILES: CCN1CCN(C2CN(c3cnc4ccc(-c5ccc6oc(N)nc6c5)nc4n3)C2)CC1 [Compound 627]

IC50 (PI3K δ; Table 4): < 10 µM
SMILES: C[C@@H]1CN(C2CN(c3cnc4ccc(-c5ccc6oc(N)nc6c5)nc4n3)C2)CCN1 [Compound 563]

IC50 (PI3K β; Table 4): < 10 µM | IC50 (PI3K δ; Table 4): < 10 µM | IC50 (PI3K γ; Table 4): < 10 µM
SMILES: Cc1nccn1C1CN(c2cnc3ccc(-c4ccc5oc(N)nc5c4)nc3n2)C1 [Compound 601]

IC50 (PI3K δ; Table 4): < 10 µM
SMILES: CS(=O)(=O)N1CCN(C2CN(c3cnc4ccc(-c5ccc6oc(N)nc6c5)nc4n3)C2)CC1 [Compound 559]

IC50 (PI3K α; Table 4): < 10 µM
SMILES: CC(C)N1CCN(C2CN(c3cnc4ccc(-c5ccc6oc(N)nc6c5)nc4n3)C2)CC1 [Compound 628]

IC50 (PI3K α): < 1 µM | IC50 (PI3K β): < 0.1 µM | IC50 (PI3K δ): < 10 µM
SMILES: C[C@H]1CN(c2cnc3ccc(-c4ccc5oc(N)nc5c4)cc3n2)CCN1C [Compound 332]

IC50 (PI3K δ; Table 4): < 10 µM
SMILES: CN1CCN(c2cnc3ccc(-c4ccc5oc(N)nc5c4)nc3c2)CC1 [Compound 575]
